# Test results as given in patent EP3543705A1, “MITOCHONDRIAL PH PROBE” (priority 2018, dated 2019).
# How the values were obtained:
# A2780 cells [1] = assay: mitochondrial staining with the inactive (caged) form versus the active form; assay type: cell-based; conditions: 2uM, identical conditions
# [2] = pH dependence of fluorescence at 520 nm of the active probe (pKa study); assay type: physicochemical; conditions: PBS buffer with 5% BSA, estimated
# Experimental: The pH dependence for fluorescence at 520 nm of 5FA-PIP-Cy5, the active form of 5FA-PIP-Cy5-DA was measured with 5FA-PIP-Cy5 dissolved in a PBS buffer with 5% BSA. (see Figure 3). From this study the pKa of the active form was estimated to be 6.88. This value is within expectable range for the fluorescein moiety containing electron-donor amide group and is within the physiologically relevant range of 6.5 - 8.5.
# LT-HSC = assay: mitochondrial pH of hematopoietic stem cells in different culture conditions, measured with 5FA-PIP-Cy5-DA; assay type: cell-based, mice; conditions: LT-HSC cultured with 5 uM DMOG or IL-3 20 ng/mL and IL-6 100ng/mL, compared with basal medium, ST-HSC and MPP
# Text: For LT-HSC cells, three different culture conditions (basal medium, DMOG-induced chemical hypoxia and IL-3, IL-6 - induced differentiation) were examined. The calibration curve for the ratio of 5Fluoro/Cy5 fluorescence was obtained using FCCP and a PBS-5% BSA buffer with MPP cells in a manner analogous to the method described in Example 2 (see Figure 10). Fresh cells, extracted from bone marrow of 8-12 week old male mice were stained on ice for surface cell markers and sorted by FACS, according to the following phenotypes: LT-HSC Lin- cKit+ Sca1+ CD150+ CD34- CD48-; ST-HSC Lin- cKit+ Sca1 + CD150+ CD34+; MPP Lin- cKit+ Sca1 + CD150- CD34+. The cells were cultured in Hematopoietic Stemline II (Sigma) medium with addition of SCF and Flt-3 cytokines. For appropriate experiments, additionally 5 uM DMOG or IL-3 20 ng/mL and IL-6 100ng/mL cytokines were added. […] Separate fluorescent images in green and deep red spectral channels were acquired. The florescence ratio was quantified by a specifically designed batch ImageJ plugin as described above.
# [3] = test system: mitochondria of A2780 ovarian cancer cell line; assay: fluorescein/Cy5 fluorescence ratio in stained live cells treated with nigericin or FCCP; assay type: cell-based; conditions: 300 nM FCCP or 2uM nigericin versus DMSO vehicle control; cells stained with 2 µM 5FA-PIP-Cy5-DA
# Experimental: A2780 ovarian cancer cells were cultured in 24-well microscopy glass bottom plates in a CO2 incubator. […] Separate fluorescent images in green (488/520 nm) and deep red (640/660 nm) spectral channels were acquired on Visitron W1 spinning disk confocal microscope. The florescence ratio was quantified using a specifically designed batch ImageJ plugin. This software thresholds the pH-independent Cy5 channel, quantifies the fluorescence intensity in the thresholded image areas, and uses the thresholded mask to quantify the intensity of pH-dependent 5Fluo channel. The intensity ratio is then used to estimate the mitochondrial pH of the cells. […] Typical pH variations in mitochondria of A2780 ovarian cancer cell line are represented at Figure 4. Typical staining procedure is described further. […] All images are maximum intensity projection. […] The mitochondrial staining on Figure 4A is very homogeneous. […] The mitochondrial staining on Figure 4B is very heterogeneous, unlike the Figure 4A. Figure 4C represents the overlap image of Figure 4A and Figure 4B. Bluish hint Figure 4C corresponds to relatively high mitochondrial pH, reddish to relatively low mitochondrial pH. Figure 4D represents bright field image. […] Confocal images were acquired for control, FCCP- and nigericin-treated cell samples, and the ratio between fluorescein and Cy5 channel fluorescence was quantified.
# [4] = test system: mitochondria of A2780 ovarian cancer cell line; assay: probe calibration in defined-pH buffers: collapse of the mitochondrial pH gradient; assay type: cell-based; conditions: stained cells in high K+ buffers, pH range 6.73 to 8.36
# Experimental: A2780 ovarian cancer cells were cultured in 24-well microscopy glass bottom plates in a CO2 incubator. Prior to imaging, the cells were stained with 2uM 5FA-PIP-Cy5-DA, and/or TMRM (20nM) for 30 min in bicarbonate-free DMEM medium to avoid extracellular pH fluctuations, then washed with the same medium (without 5FA-PIP-Cy5-DA) and imaged with confocal spinning disk microscopy at 60x magnification When TMRM was used, this dye was also present in the bicarbonate-free DMEM medium during the imaging of the cells. Separate fluorescent images in green (488/520 nm) and deep red (640/660 nm) spectral channels were acquired on Visitron W1 spinning disk confocal microscope. The florescence ratio was quantified using a specifically designed batch ImageJ plugin. This software thresholds the pH-independent Cy5 channel, quantifies the fluorescence intensity in the thresholded image areas, and uses the thresholded mask to quantify the intensity of pH-dependent 5Fluo channel. The intensity ratio is then used to estimate the mitochondrial pH of the cells. Calibration of the intensity ratio was achieved through the staining of A2780 cells in a series of PBS - 5% BSA buffers with defined pH, containing 20mM HEPES and 5uM FCCP, to equilibrate the mitochondrial pH with the pH of the buffer.
# The stained cells were treated with FCCP in high K^+ buffers in a pH range of 6.73 to 8.36.
# A2780 cells [5] = assay: mitochondrial pH of drug-treated cells, measured with 5FA-PIP-Cy5-DA; assay type: cell-based
# Text: The calibration curve for the ratio of 5Fluoro/Cy5 fluorescence was obtained using FCCP and a PBS-5% BSA buffer with A2780 cells in a manner analogous to the method described in Example 2 (see Figure 12). The quantifying of mitochondrial pH in the presence of the drug and after the drug was washed away allowed the distinction between interference with mitochondrial metabolism and general cytotoxicity. If the effect of the drug was primarily to affect mitochondrial metabolism it was expected that the mitochondrial pH would quickly return to the non-treated cell level following removal of the drug, providing the drug had no other significant cytotoxic effects. Conversely, if the effect of the drug were not reversed by the washing step, an observed alteration of mitochondrial pH could be interpreted at least partially as a downstream consequence of the general cytotoxicity of the drug. A2780 cells were cultured in 24-well microscopy glass bottom plates in RPMI medium, containing Glutamax with 10% FBS addition. The cells were treated with appropriate 800uM […] or 5uM cisplatin. […] If the drug was not washed away prior to staining, it remained present in the medium through the whole imaging time. Separate fluorescent images in green and deep red spectral channels were acquired. The florescence ratio was quantified by a specifically designed batch ImageJ plugin as described above. Statistical analysis was performed using 1-way ANOVA with Bonferroni-Holm post-hoc analysis.
# [6] = after the drug was washed away, treated one day with 800uM RAPTA-T or 5uM cisplatin, control cells pH 8.4
# [7] = in the presence of the drug, treated one day with 800uM RAPTA-T or 5uM cisplatin, control cells pH 8.4
structure (smiles),measurement,setting,value
CN1C(=CC=CC=CC2=[N+](CCCCCC(=O)N3CCN(CC(=O)Nc4ccc5c(c4)C(=O)OC54c5ccc(O)cc5Oc5cc(O)ccc54)CC3)c3ccccc3C2(C)C)C(C)(C)c2ccccc21 [5FA-PIP-Cy5],staining of mitochondria,A2780 cells [1],absolutely no staining of mitochondria
same,pKa of the active form,[2],6.88
COC(=O)CNC(=O)C(=O)OC [DMOG],average mitochondrial pH,LT-HSC,the same level of average mitochondrial pH
"N#CC(C#N)=NNc1ccc(OC(F)(F)F)cc1 [FCCP, carbonylcyanide-4-trifluoromethoxyphenylhydrazone]",5Fluo-Cy5 ratio,[3],clear measurable decrease
same,collapse of the mitochondrial pH gradient,[4],full collapse of the mitochondrial pH gradient
Cc1ccccc1.[Cl][Ru]([Cl])[PH]12CN3CN(CN(C3)C1)C2 [RAPTA-T],mitochondrial pH,A2780 cells [5]; [6],8.4
same,mitochondrial pH,A2780 cells [5]; [7],8.0
N.N.[Cl][Pt][Cl] [cisplatin],mitochondrial pH,A2780 cells [5]; [6],8.0
same,mitochondrial pH,A2780 cells [5]; [7],7.8
CO[C@@H]1C[C@@H](C[C@H]2CC[C@H](C)[C@H]([C@@H](C)C(=O)O)O2)O[C@]2(O[C@](C)([C@H]3CC[C@@](C)([C@@H]4O[C@@H]([C@H]5O[C@@](O)(CO)[C@H](C)C[C@@H]5C)C[C@@H]4C)O3)C[C@H]2C)[C@@H]1C [nigericin],5Fluo-Cy5 ratio,[3],clear measurable decrease
same,collapse of the mitochondrial pH gradient,[4],no full gradient collapse
CC[C@H]1/C=C/C=C/C[C@@H](C)[C@H](O)[C@@](C)(O)C(=O)[C@@H](C)[C@H](O)[C@@H](C)C(=O)[C@@H](C)[C@H](O)[C@@H](C)/C=C/C(=O)O[C@@H]2[C@H](C)[C@H](CC1)O[C@]1(CC[C@H](C)[C@H](C[C@@H](C)O)O1)[C@H]2C [oligomycin],mitochondrial pH,"A2780 cells [5]; addition of 10µm oligomycin, increase from 8.4",around 8.5
